Measured values from US11261454B2, “Method for introducing a polynucleotide into non-adhesively growing plant cells” (ScreenSYS GmbH, priority 2010, dated 2022).

Assays:
auxin sensor construst = assay: Luciferase activity measurement with auxin sensor construct (firefly/renilla ratio); type: cell-based
Source text: Our further aim to combine PPTT with amiRNA and other functional screenings such as split-GFP, split-YFP etc. Since co-expression of vectors works perfect, split screenings could be done straight away using confirmed interacting pair. Transformation with the luciferase reporter and subsequent luciferase activity measurements were successfully tested using auxin sensor construst (FIG. 19).

PIN1 = assay: Expression of amiR^PIN1 in stable transgenic lines, plant phenotypes; type: in vivo, Arabidopsis (Col-0 wild-type background); details: independent lines
[1] = tested on: protoplasts from wild type tobacco; assay: Quantitative analysis of auxin mediated cell expansion of immobilised tobacco protoplasts (automated imaging); type: cell-based; details: auxin 0 to 50 μM, at least 200 cells per group
Source text: We compared the effect of auxin concentration on cell elongation over a continuous period (4-6 days) using tobacco leaf protoplasts from wild type tobacco and from the tobacco line overexpressing AtPIN8 translationally fused with Venus fluorescent marker protein (PIN8VenusOx). Two strategies were used: • effect of PIN5 and PIN8 expression on cell elongation using transient transformation with dried DNA, protoplast immobilization and culture with manual cell imaging and tracking. • effect of auxin concentration (0, 1 pM, 10 pM, 100 pM, 500 pM, 1 nM, 10 nM, 100 nM, 500 nM, 1 μM, 2.5 μM, 5 μM, 10 μM, 25 μM and 50 μM) and quantitative analysis of cell elongation to compare wild type and PIN8VenusOx protoplasts using automated imaging (every 24 h for 4 days, 5 reference points) and computational image analysis.
Protoplasts were isolated and immobilized using our procedure described in the current patent application. Culture medium with final auxin concentration of 0, 1 pM, 10 pM, 100 pM, 500 pM, 1 nM, 10 nM, 100 nM, 500 nM, 1 μM, 2.5 μM, 5 μM. 10 μM. 25 μM and 50 μM was used for washing steps and cell culture afterwards in corresponding wells. […] This experiment allowed to extract quantitative information for hundreds cells per group, the whole experiment was performed in a single 96-well plate. […]

In the case of `O=C(O)Cc1cccc2ccccc12` [NAA], the “effect on firefly/renilla ratio” value (auxin sensor construst) is reported as “Concentration-dependent effect”.
“amiR^P33: artificial miRNA TACGATTTGAACCATGAGGCC, SEQ ID NO:10 (expressed or natural sequence)” was tested, and the “rosette leaf phenotype of transgenic plants” value (PIN1; 2 weeks after germination) was “Altered phyllotaxis pattern of rosette leaves” and the “shoot phenotype of transgenic lines” value (PIN1) was “Altered shoot phyllotaxis and pin1-like shoot phenotypes”.
With auxin the “cell expansion of developing protoplasts” value [1] was “Concentration-depended cell expansion”.
